Like-named read-outs stand apart in the source and are kept apart here.
Assays:
NFκB [1] = test system: NFκB; parameters: method as in PMID 21105712; conditions: earlier work; read-out: IC50, inhibition of NFκB; cited from earlier work
iNOS = test system: iNOS; parameters: method as in PMID 21105712; conditions: cited from earlier work
NFκB [2] = assay: TNF-α-induced NFκB luciferase reporter assay in stably-transfected human embryonic kidney cells 293; type: cell-based; conditions: human embryonic kidney cells 293 NFκB reporter, TNF-α 2 ng/mL, 6 h; read-out: IC50, inhibition of TNF-α-induced NFκB activity
Description: Activation of NFκB may promote cell proliferation or prevent cell death through apoptosis. Inhibition of NFκB signaling has potential application for the treatment or prevention of cancer; some inhibitors are known. […] […].
We employed human embryonic kidney cells 293 Panomic (Fremont, CA, USA) for monitoring changes occurring along the NFκB pathway. Stable constructed cells were seeded into sterile 96-well plate at 20 × 10^3 cells per well. Cells maintained in Dulbecco’s modified Eagle’s medium (DMEM) Invitrogen Co. (Carlsbad, CA, USA), supplemented with 10% FBS, 100 units/mL penicillin, 100 µg/mL streptomycin, 2 mM L-glutamine. After 48 h incubation, the medium was replaced and cells were treated with various concentration of test substances dissolved in PBS. TNF-α (Human, Recombinant, E. coli, Calbiochem, Gibbstown, NJ, USA) was used as an activator at a concentration of 2 ng/mL (0.14 nM). The plate was incubated for 6 h. Spent medium was discarded and the cells were washed once with PBS. Cells were lysed using 50 µL (for 96-well plate) Reporter Lysis Buffer from Promega, by incubating for 5 min on a shaker, and stored at −80 °C. The luciferase assay was performed using the Luc assay system from Promega (Madison, WI, USA). The gene product, luciferase enzyme, reacts with luciferase substrate, emitting light which was detected using a luminometer (LUMIstar Galaxy BMG). Data for NFκB constructs are expressed as IC50 values (i.e., concentration required to inhibit TNF-activated NFκB activity by 50%).

[3] = test system: quinone reductase 1 (NQ01, QR1); parameters: method as in PMID 21187465; conditions: cell culture; cited from earlier work
[4] = test system: glutathione S-transferase (GST); parameters: method as in PMID 21187465; conditions: cell culture; cited from earlier work
[5] = parameters: method as in PMID 21187465; conditions: cited from earlier work
RAW 264.7 cells = assay: Cell viability (SRB) of RAW 264.7 cells in the NO assay; type: cell-based; conditions: 50 µM
[6] = test system: PGE2 production in LPS-induced RAW 264.7 cells; assay: LPS-induced PGE2 production in RAW 264.7 cells (ELISA); type: cell-based; conditions: Mus musculus
Description: RAW 264.7 cells (1 × 10^5 cells/well, 200 µL) were incubated in a 96-well culture plate in the presence of 5% CO2 at 37 °C for 24 h. The medium was changed to non-colored DMEM containing 5% FBS, and the cells were treated with various concentrations of compounds for 30 min followed by 1 μg/mL of LPS treatment for 24 h. Cell media were collected, diluted 18-times and used for measuring PGE2. Nunc-Immuno 96-well plates were coated with secondary antibody (goat anti-mouse IgG) affinity purified (Jackson Immuno Research Laboratories). Aliquots of cell media were added to the immune plate with primary PGE2 monoclonal antibody (Cayman Chemical) and a tracer PGE2-acetylcholinesterase (Cayman Chemical) and incubated overnight at room temperature in the dark. The next day, the wells were aspirated, washed, 200 µL of Elman’s reagent was added in each well, and incubated 2–5 h at 37 °C out of direct light until control wells reach an optical density 0.4–0.5. Gentle rotating/shaking was used to decrease the time required for color development. Absorbance was read at 412 nm. The PGE2 concentration of each sample was calculated from a PGE2 standard curve (PGE2 from Cayman Chemical). The percent inhibition as a function of the inhibitor concentration was graphed to determine the IC50 values (concentration at which there was 50% inhibition).

[7] = test system: NO production in LPS-induced RAW 264.7 cells; assay: LPS-induced NO production in RAW 264.7 cells (Griess reagent); conditions: Mus musculus
Description: The amount of nitrite was measured using the Griess reagent to assess the NO production [47, 48]. […] The cells were treated with various concentrations of compounds dissolved in phenol-red free DMEM for 30 min followed by 1 μg/mL of LPS treatment for 24 h. […] The standard curve was created by using known concentrations of sodium nitrite.

What does the source list for `Oc1c(Br)ccc2nc3ccccc3nc12` [2-bromo-1-hydroxyphenazine]?
IC50 (NFκB [1]): 73 µM; inhibition of iNOS activity (iNOS): did not inhibit iNOS activity

Which IC50 (NFκB [2]) does the source give for `Cc1ccc(S(=O)(=O)N[C@@H](Cc2ccccc2)C(=O)CCl)cc1` [TPCK, N-tosyl-L-phenylalanyl chloromethyl ketone, reference compound] here?
The IC50 was 3.8 µM.

For `Cc1ccc(S(=O)(=O)/C=C/C#N)cc1` [BAY-11-7082, reference compound], which IC50 (NFκB [2]) is on record?
The IC50 was 2 ± 0.28 µM.

For `Oc1c(Br)cc(Br)c2nc3ccccc3nc12` [2,4-dibromo-1-hydroxyphenazine], which “activation of QR1” value [3] is on record?
Its value is “activate”.

What about the “activation of glutathione S-transferase (GST)” value [4] of the same molecule?
Its value is “activate”.

And the bioavailability [5]?
The bioavailability was “poor bioavailability”.

What about the in vivo activity [5] of the same molecule?
The in vivo activity was “low”.

For `Oc1ccc(/C=C/c2cc(O)cc(O)c2)cc1` [Resveratrol, resveratrol, reference compound], which “NO % cell survival” value (RAW 264.7 cells) is on record?
The value was 86.9 ± 3.9%.

And the inhibition at 50 µM ([6]; RAW264.7, read-out: PGE2 % inhibition (50 µM))?
The inhibition at 50 µM was 70.2 ± 13.9%.

What about the IC50 ([6]; RAW264.7, read-out: PGE2 IC50) of the same molecule?
Its IC50 is 2.5 ± 0.43 µM.

What about the IC50 (NFκB [2]) of the same molecule?
The IC50 was 2.5 ± 0.3 µM.

And the inhibition at 50 µM ([7]; RAW264.7, read-out: NO % inhibition (50 µM), LPS-induced RAW 264.7 cells, 50 µM)?
Its inhibition at 50 µM is 93 ± 0.8%.

And the IC50 ([7]; RAW264.7, read-out: NO IC50)?
Its IC50 is 31.9 ± 1.8 µM.

Reference: PMC3297008, “Novel Marine Phenazines as Potential Cancer Chemopreventive and Anti-Inflammatory Agents” (Marine Drugs, 2012)
